Reference: patent US20150328245A1, “Agents for Eliminating Tumour-Initiating Cells” (priority 2012, published 2015)
Several values for one entry are separate records, joined by “and”; a condition that tells them apart may be missing. Identical values can stand only once. Like-named read-outs stand apart in the source and are kept apart here.

How the values were obtained:
DU145 [1] = assay: In vitro colorimetric cell death assay (MTT); assay type: cell-based
Description: (§1) It's an in vitro colorimetric assay for assessing cell viability where the cells are grown in Two-dimensional surface.
(§2) An exemplary procedure for the assay follows. Cancer cells and normal cells were plated in a 96 well plate as per predetermined plating efficiency. The plate was incubated for 24 hours in a 5% CO2 atmosphere at 37 degrees Celsius, a range of concentrations of the compounds I-1, I-2 and I-3 as well as cisplatin (known chemotherapeutic agents) were added to the separate wells, the plate was incubated further for 48 hours in a 5% CO2 atmosphere, the plate was centrifuged twice at 3000 rpm for 3 minutes, the supernatant fluid was discarded, 100 uL of 0.5 mg/mL MTT solution was added and the plate was incubated for 4 hours in a 5% CO2 atmosphere at 37 degrees Celsius. The plate was then centrifuged twice at 3000 rpm for 3 minutes, supernatant, was aspirated very carefully, 200 uL DMSO was added to each well to solubilize MTT crystals and mixed well by shaking the plate, the plate was incubated for 10 minutes in a 5% CO2 atmosphere at 37 degrees Celsius, the plate placed on the shaker of an ELISA plate reader and the absorbance at 570 nm was measured, then the percentage of viable cells remaining was calculated by first subtracting the background absorbance then comparing to the absorbance of a non-drug-treated cell sample, and the results were plotted on a graph to determine the IC50 for the compounds and cisplatin.

L 929 = assay: In vitro colorimetric cell death assay (MTT); assay type: cell-based
Description: as §1, §2

LNCaP [2] = assay: In vitro colorimetric cell death assay (MTT); assay type: cell-based; details: 48 hours
Description: as §1, §2

MCF-7 [3] = assay: In vitro colorimetric cell death assay (MTT); assay type: cell-based; details: MCF-7, MTT, 48 hours
Description: as §1, §2

[4] = test system: MCF10A (normal breast cell line); assay: In vitro colorimetric cell death assay (MTT); assay type: cell-based; details: 48 hours
Description: as §1, §2

MDAMB231 [5] = assay: In vitro colorimetric cell death assay (MTT); assay type: cell-based; details: 48 hours
Description: as §1, §2

PC3 [6] = assay: In vitro colorimetric cell death assay (MTT); assay type: cell-based; details: 48 hours
Description: as §1, §2

T47D [7] = assay: In vitro colorimetric cell death assay (MTT); assay type: cell-based; details: 48 hours
Description: as §1, §2

DU145 [8] = assay: In vitro soft agar colony forming growth assay; assay type: cell-based; details: one week
Description: (§3) The Soft Agar Assay for Colony Formation is considered the most stringent assay for detecting malignant transformation of cells. In this assay the cells are cultured in medium with low percentage of agar.
(§4) An exemplary procedure for the assay follows.

HeLa = assay: In vitro soft agar colony forming growth assay; assay type: cell-based
Description: as §3, §4

L929 = assay: In vitro soft agar colony forming growth assay; assay type: cell-based
Description: as §3, §4

LNCaP [9] = assay: In vitro soft agar colony forming growth assay; assay type: cell-based; details: one week
Description: as §3, §4

MCF-7 [10] = assay: In vitro soft agar colony forming growth assay; assay type: cell-based; details: MCF-7, soft agar, one week
Description: as §3, §4

PC3 [11] = assay: In vitro soft agar colony forming growth assay; assay type: cell-based; details: one week
Description: as §3, §4

T47D [12] = assay: In vitro soft agar colony forming growth assay; assay type: cell-based; details: one week
Description: as §3, §4

[13] = test system: breast cancer cells MCF-7; assay: In vitro 3D primary sphere forming stem cell assay; assay type: cell-based
Description: (§5) This assay measures the ability of cancer stem cells to form spheres in a serum free media where the spheres are in a suspended form. Through this assay we evaluated the potency of the compounds of the invention to kill cancer stem cells in comparison with the known chemotherapeutic agent Cisplatin.
(§6) An exemplary procedure for the assay follows. Cells were grown in three dimensions on a plastic substrate, harvested in suspension in serum-free media, then the cells in the sample were trypsinized and a single cell suspension was formed by passing through a cell strainer. The cells were diluted according to the predetermined plating efficiency for the cell line being studied by suspending the cells in stem cell culture medium. 100 uL of this suspension was added into each well of a 96 well suspension plate, and the plate was incubated at 37 degrees Celsius in 5% CO2 atmosphere for 24 hours, then 2 uL of appropriate concentrations of the compounds of the invention and cisplatin were added into each respective well along with 100 uL of stem cell culture medium, and the plates were incubated at 37 degrees Celsius under 5% CO2 atmosphere for 72 hours. 2.5 uL of the compounds of the invention and cisplatin were added to each respective well along with 50 uL of stem cell culture medium and then the plates were incubated at 37 degrees Celsius under 5% CO2 atmosphere for 72 hours. 3 uL of appropriate concentrations of the compounds of the invention and cisplatin were added to each respective well along with 50 uL of stem cell culture medium and then the plates were incubated at 37 degrees Celsius under 5% CO2 atmosphere for 72 hours, then the spheres formed were observed under a microscope then counted and scored by size.
(§7) Results of the in vitro 3D sphere forming stem cell assay are set forth in a tabular manner. The number in each box is the total number of spheres formed in the presence of either cisplatin or compound I-2 or compound I-3 at each drug concentration. GC refers to a growth control performed in the absence of drug or solvent (DMSO). GCD refers to a growth control performed in the absence of drug, but in the presence of DMSO.

[14] = test system: breast cancer cells MDA MB 231; assay: In vitro 3D primary sphere forming stem cell assay; assay type: cell-based
Description: as §5, §6, §7

breast cancer cells T47D = assay: In vitro 3D primary sphere forming stem cell assay; assay type: cell-based
Description: as §5, §6, §7

[15] = test system: prostate cancer cells DU145; assay: In vitro 3D primary sphere forming stem cell assay; assay type: cell-based
Description: as §5, §6, §7

[16] = test system: prostate cancer cells LNCaP; assay: In vitro 3D primary sphere forming stem cell assay; assay type: cell-based
Description: as §5, §6, §7

[17] = test system: prostate cancer cells PC3; assay: In vitro 3D primary sphere forming stem cell assay; assay type: cell-based
Description: as §5, §6, §7

cancer cell lines = assay: In vitro colorimetric cell death assay (MTT), overall statement; assay type: cell-based
Description: as §1, §2

MDAMB231 [18] = assay: In vitro soft agar colony forming growth assay; assay type: cell-based; details: Homo sapiens, MDA-MB-231, 168 h
Description: as §3, §4

[19] = In vivo maximum tolerated dose assay for compound I-1; design: species or system nude mice
Description: In vivo maximum tolerated dose (MTD) toxicity assay was carried out to evaluate the highest dose of a pharmaceutical treatment that will produce the desired effect without unacceptable toxicity. The purpose of administering MTD is to determine whether long-term exposure to a compound might lead to unacceptable adverse health effects in a subject, when the level of exposure is not sufficient to cause premature mortality due to short-term toxic effects.
An exemplary procedure for the in vivo maximum tolerated dose toxicity assay follows. A statistically appropriate number of male and female nude mice were injected with a single dose of either 30 mg/kg, 10 mg/kg, 5 mg/kg, and 2.5 mg/kg of a compound I-1 interperitoneally (i.p.) on day zero. The number of mice surviving from each dose group after the first through fourth days was recorded, and the Maximum Tolerated Dose (“MTD”; e.g. the dose at which 100% of the animals survived after 4 days) was determined.

N.N.[Cl][Pt][Cl] [Cisplatin, cisplatin, reference compound]
IC50 (DU145 [1]; DU145, MTT, 48 hours, read-out: IC 50): 56.2 µM
IC50 (L 929; L 929, MTT, 48 hours, read-out: IC 50): 46.7 µM
IC50 (LNCaP [2]): 64.6 µM
IC50 (MCF-7 [3]): 4.75 µM
IC50 ([4]; read-out: IC 50): 36.3 µM
IC50 (MDAMB231 [5]): 82.3 µM
IC50 (PC3 [6]): 40.1 µM
IC50 (T47D [7]): 51.3 µM
IC50 (DU145 [8]): 56.2 µM
IC50 (HeLa; soft agar, one week, read-out: IC 50): 39.4 µM
IC50 (L929; L929, soft agar, one week, read-out: IC 50): 8.7 µM
IC50 (LNCaP [9]): 64.6 µM
IC50 (MCF-7 [10]): 37.1 µM
IC50 (PC3 [11]): 40.1 µM
IC50 (T47D [12]): 51.3 µM
# of 3D Primary Spheres Formed of Cells MCF-7 (±SD) ([13]; final conc. 0.125 μM): 76(±5)
# of 3D Primary Spheres Formed of Cells MCF-7 (±SD) ([13]; final conc. 1.25 μM): 77(±5)
# of 3D Primary Spheres Formed of Cells MCF-7 (±SD) ([13]; final conc. 12.5 μM): 68(±7)
# of 3D Primary Spheres Formed of Cells MCF-7 (±SD) ([13]; final conc. 125 μM): 61(±7)
# of 3D Primary Spheres Formed of Cells MCF-7 (±SD) ([13]; final conc. 1250 μM): 37(±8)
# of 3D Primary Spheres Formed of Cells MDA MB231 (±SD) ([14]; final conc. 0.125 μM): 124(±7) and 87(±5)
# of 3D Primary Spheres Formed of Cells MDA MB231 (±SD) ([14]; final conc. 1.25 μM): 113(±11) and 79(±2)
# of 3D Primary Spheres Formed of Cells MDA MB231 (±SD) ([14]; final conc. 12.5 μM): 112(±18) and 78(±5)
# of 3D Primary Spheres Formed of Cells T47D (±SD) (breast cancer cells T47D; final conc. 0.125 μM): 105(±10)
# of 3D Primary Spheres Formed of Cells T47D (±SD) (breast cancer cells T47D; final conc. 1.25 μM): 100(±7)
# of 3D Primary Spheres Formed of Cells T47D (±SD) (breast cancer cells T47D; final conc. 12.5 μM): 76(±25)
# of 3D Primary Spheres Formed of Cells T47D (±SD) (breast cancer cells T47D; final conc. 125 μM): 51(±5)
# of 3D Primary Spheres Formed of Cells T47D (±SD) (breast cancer cells T47D; final conc. 1250 μM): 0(±0)
# of 3D Primary Spheres Formed of Cells DU145 (±SD) ([15]; final conc. 0.125 μM): 84(±4)
# of 3D Primary Spheres Formed of Cells DU145 (±SD) ([15]; final conc. 1.25 μM): 70(±7)
# of 3D Primary Spheres Formed of Cells DU145 (±SD) ([15]; final conc. 12.5 μM): 48(±6)
# of 3D Primary Spheres Formed of Cells DU145 (±SD) ([15]; final conc. 125 μM): 35(±4)
# of 3D Primary Spheres Formed of Cells DU145 (±SD) ([15]; final conc. 1250 μM): 11(±3)
# of 3D Primary Spheres Formed of Cells LNCaP (±SD) ([16]; final conc. 0.125 μM): 142(±12)
# of 3D Primary Spheres Formed of Cells LNCaP (±SD) ([16]; final conc. 1.25 μM): 144(±8)
# of 3D Primary Spheres Formed of Cells LNCaP (±SD) ([16]; final conc. 12.5 μM): 108(±10)
# of 3D Primary Spheres Formed of Cells LNCaP (±SD) ([16]; final conc. 125 μM): 54(±7)
# of 3D Primary Spheres Formed of Cells LNCaP (±SD) ([16]; final conc. 1250 μM): 9(±2)
# of 3D Primary Spheres Formed of Cells PC3 (±SD) ([17]; final conc. 0.125 μM): 125(±7)
# of 3D Primary Spheres Formed of Cells PC3 (±SD) ([17]; final conc. 1.25 μM): 109(±12)
# of 3D Primary Spheres Formed of Cells PC3 (±SD) ([17]; final conc. 12.5 μM): 80(±6)
# of 3D Primary Spheres Formed of Cells PC3 (±SD) ([17]; final conc. 125 μM): 67(±5)
# of 3D Primary Spheres Formed of Cells PC3 (±SD) ([17]; final conc. 1250 μM): 55(±5)

COc1cc2c(OC3OCC(OC)C(OC)C3OC(C)=O)c3c(c(-c4ccc5c(c4)OCO5)c2cc1OC)C(=O)OC3 (stereo not drawn) [I-1]
IC50 (DU145 [1]; Homo sapiens, DU-145, 48 h): 37.6 µM
IC50 (L 929; Mus musculus, L929, 48 h): 1.23 µM
IC50 [4]: No activity
anticancer activity in cancer cell lines as compared to cisplatin (cancer cell lines): high anticancer activity
IC50 (HeLa; Homo sapiens, 168 h): 5.12 µM
IC50 (L929; Mus musculus, L929, 168 h): 3.63 µM
IC50 (MDAMB231 [18]): 5.88 µM
Number of mice surviving after injection ([19]; 2.5 mg/kg single dose i.p., day 0): 6/6
Number of mice surviving after injection ([19]; 2.5 mg/kg single dose i.p., day 1): 6/6
Number of mice surviving after injection ([19]; 2.5 mg/kg single dose i.p., day 2): 6/6
Number of mice surviving after injection ([19]; 2.5 mg/kg single dose i.p., day 3): 6/6
Number of mice surviving after injection ([19]; 2.5 mg/kg single dose i.p., day 4): 6/6
Number of mice surviving after injection ([19]; 5 mg/kg single dose i.p., day 0): 6/6
Number of mice surviving after injection ([19]; 5 mg/kg single dose i.p., day 1): 6/6
Number of mice surviving after injection ([19]; 5 mg/kg single dose i.p., day 2): 6/6
Number of mice surviving after injection ([19]; 5 mg/kg single dose i.p., day 3): 6/6
Number of mice surviving after injection ([19]; 5 mg/kg single dose i.p., day 4): 6/6
Number of mice surviving after injection ([19]; 10 mg/kg single dose i.p., day 0): 6/6
Number of mice surviving after injection ([19]; 10 mg/kg single dose i.p., day 1): 4/6
Number of mice surviving after injection ([19]; 10 mg/kg single dose i.p., day 2): 4/6
Number of mice surviving after injection ([19]; 10 mg/kg single dose i.p., day 3): 4/6
Number of mice surviving after injection ([19]; 10 mg/kg single dose i.p., day 4): 4/6
Number of mice surviving after injection ([19]; 30 mg/kg single dose i.p., day 0): 4/6
Number of mice surviving after injection ([19]; 30 mg/kg single dose i.p., day 1): 4/6
Number of mice surviving after injection ([19]; 30 mg/kg single dose i.p., day 2): 0/6
Number of mice surviving after injection ([19]; 30 mg/kg single dose i.p., day 3): 0/6
Number of mice surviving after injection ([19]; 30 mg/kg single dose i.p., day 4): 0/6
MTD ([19]; single dose i.p., nude mice): 5-10 mg/kg body weight
dose that resulted in 100% survival of mice after 4 days ([19]; single dose i.p., nude mice): about 5 mg/kg
